ChEMBL document CHEMBL1145878, “Synthesis and evaluation of isatins and thiosemicarbazone derivatives against cruzain, falcipain-2 and rhodesain” (Bioorg Med Chem Lett, 2003)

What was measured:
Falcipain 2 [1] = biological target: T1, Falcipain 2 (Plasmodium falciparum, UniProt Q9N6S8); assay: Inhibitory activity against Falcipain-2; No effect
T1 sequence (Q9N6S8 whole entry): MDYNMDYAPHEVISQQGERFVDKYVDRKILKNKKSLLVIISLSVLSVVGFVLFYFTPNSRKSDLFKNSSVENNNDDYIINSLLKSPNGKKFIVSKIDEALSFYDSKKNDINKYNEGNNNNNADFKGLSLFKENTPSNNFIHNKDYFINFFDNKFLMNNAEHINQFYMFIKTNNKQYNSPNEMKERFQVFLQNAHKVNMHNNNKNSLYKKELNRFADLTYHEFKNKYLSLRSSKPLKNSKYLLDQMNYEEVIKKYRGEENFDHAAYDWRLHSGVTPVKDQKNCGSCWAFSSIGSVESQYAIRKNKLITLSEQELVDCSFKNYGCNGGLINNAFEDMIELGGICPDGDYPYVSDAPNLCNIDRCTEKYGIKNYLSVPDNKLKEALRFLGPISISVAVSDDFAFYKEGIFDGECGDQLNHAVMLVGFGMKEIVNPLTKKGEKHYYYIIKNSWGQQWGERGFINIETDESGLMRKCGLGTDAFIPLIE

Cruzipain [2] = biological target: T2, Cruzipain (Trypanosoma cruzi, UniProt P25779); assay: Inhibitory activity against the Trypanosoma cruzi cysteine protease cruzain
Falcipain 2 [3] = biological target: T1, Falcipain 2; assay: Inhibitory activity against Falcipain-2; no effect
Rhodesain = Rhodesain (Trypanosoma brucei rhodesiense, UniProt Q95PM0); assay: Inhibitory activity against Trypanosoma brucei rhodesiense cysteine protease rhodesain
Falcipain 2 [4] = biological target: T1, Falcipain 2; assay: Inhibitory activity against Falcipain-2
Cruzipain [5] = biological target: T2, Cruzipain; assay: Inhibitory activity against Cruzain;range is 20-50

T2 sequence (P25779 whole entry): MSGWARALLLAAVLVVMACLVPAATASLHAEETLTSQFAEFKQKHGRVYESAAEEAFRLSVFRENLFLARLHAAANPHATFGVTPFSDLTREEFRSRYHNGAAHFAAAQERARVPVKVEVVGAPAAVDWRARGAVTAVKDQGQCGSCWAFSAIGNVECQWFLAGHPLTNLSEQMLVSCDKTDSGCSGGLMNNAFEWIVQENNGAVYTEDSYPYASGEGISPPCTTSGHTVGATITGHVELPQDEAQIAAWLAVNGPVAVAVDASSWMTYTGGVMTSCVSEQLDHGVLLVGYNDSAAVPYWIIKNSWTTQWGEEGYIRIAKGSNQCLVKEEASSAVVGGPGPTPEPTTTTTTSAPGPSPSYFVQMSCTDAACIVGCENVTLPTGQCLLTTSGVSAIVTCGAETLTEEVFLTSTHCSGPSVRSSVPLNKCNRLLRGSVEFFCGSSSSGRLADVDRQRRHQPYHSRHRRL
Chain of Rhodesain (Q95PM0 whole entry): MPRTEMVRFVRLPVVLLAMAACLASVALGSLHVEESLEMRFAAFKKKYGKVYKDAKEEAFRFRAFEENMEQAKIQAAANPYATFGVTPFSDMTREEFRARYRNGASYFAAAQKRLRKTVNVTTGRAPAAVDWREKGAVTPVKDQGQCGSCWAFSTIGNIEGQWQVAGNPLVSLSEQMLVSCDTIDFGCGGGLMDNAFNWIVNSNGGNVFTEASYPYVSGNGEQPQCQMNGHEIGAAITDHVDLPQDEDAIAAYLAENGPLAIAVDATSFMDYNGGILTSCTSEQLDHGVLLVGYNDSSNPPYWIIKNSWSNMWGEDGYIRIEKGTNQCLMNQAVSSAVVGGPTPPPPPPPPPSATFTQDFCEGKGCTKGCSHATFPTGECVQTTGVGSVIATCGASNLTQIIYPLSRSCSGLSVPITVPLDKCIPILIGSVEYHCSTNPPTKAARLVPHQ

| Structure (SMILES) | IC50 (Falcipain 2 [1]) | IC50 (Cruzipain [2]) [µM] | IC50 (Falcipain 2 [3]) | IC50 (Rhodesain) [µM] | IC50 (Falcipain 2 [4]) [µM] | IC50 (Cruzipain [5]) [µM] |
| --- | --- | --- | --- | --- | --- | --- |
| Cc1ccc2c(c1)C(=O)C(=O)N2 | Not Active | > 10 | – | – | – | – |
| O=C1C(=O)N(C(=O)c2ccccc2)c2ccccc21 | – | – | Not Active | 100 | – | – |
| Cc1cc(C)c2c(c1)C(=O)C(=O)N2 | – | > 10 | Not Active | – | – | – |
| O=C1Nc2ccc(I)cc2C1=O [5-IODOISATIN] | – | > 10 | Not Active | – | – | – |
| Cc1ccc2c(c1)C(=O)C(=O)N2Cc1ccccc1-c1ccccc1 | – | 2.8 | – | > 10 | 9.2 | – |
| O=C1C(=O)N(Cc2ccccc2)c2ccc(I)cc21 | – | 90 | – | > 10 | – | – |
| O=C1C(=O)N(Cc2ccccc2)c2ccccc21 | – | > 10 | Not Active | > 10 | – | – |
| COc1cccc(CN2C(=O)C(=O)c3cc(Cl)ccc32)c1 | – | > 10 | – | > 10 | 34.6 | – |
| O=C1Nc2ccccc2C1=O [ISATIN] | Not Active | > 10 | – | > 10 | – | – |
| O=C1C(=O)N(C(=O)OCc2ccccc2)c2ccccc21 | – | – | Not Active | 30 | – | – |
| O=C1Nc2ccc(OC(F)(F)F)cc2C1=O | – | > 10 | Not Active | > 10 | – | – |
| O=C1Nc2ccc(Br)cc2C1=O | – | > 10 | Not Active | – | – | – |
| Cc1cc(Cl)cc2c(/N=N/C(=N)S)c(O)[nH]c12 | – | 10.5 | – | 3 | 9.4 | – |
| Cc1cc(C)c2[nH]c(O)c(/N=N/C(=N)S)c2c1 | – | 16 | – | 15 | 13.2 | – |
| NC(=S)/N=N/c1c(O)[nH]c2ccc(Cl)cc12 | – | 21 | – | 6 | 32.8 | – |
| NC(=S)/N=N/c1c(O)[nH]c2ccc([N+](=O)[O-])cc12 | – | 30 | – | 17 | 4.4 | – |
| O=C1C(=O)N(c2ccccc2)c2ccccc21 [PHENYL ISATIN] | – | > 10 | Not Active | – | – | – |

| Structure (SMILES) | IC50 (Falcipain 2 [1]) | IC50 (Cruzipain [2]) [µM] | IC50 (Falcipain 2 [3]) | IC50 (Rhodesain) [µM] | IC50 (Falcipain 2 [4]) [µM] | IC50 (Cruzipain [5]) [µM] |
| --- | --- | --- | --- | --- | --- | --- |
| COc1cccc(CN2C(=O)C(=O)c3cc(C)ccc32)c1 | – | 2 | – | > 10 | 21.9 | – |
| O=C1C(=O)N(C(=O)OCc2ccccc2)c2ccc(Cl)cc21 | – | 80 | Not Active | > 10 | – | – |
| CN1C(=O)C(=O)c2ccccc21 | – | > 10 | Not Active | – | – | – |
| O=C1C(=O)N(C(=O)OCc2ccccc2)c2ccc(F)cc21 | – | > 10 | – | > 10 | – | – |
| O=C1C(=O)N(S(=O)(=O)c2ccccc2)c2ccccc21 | – | – | Not Active | 15 | – | – |
| NC(=S)/N=N/c1c(O)[nH]c2ccc(I)cc12 | – | 9 | – | 1 | 28.7 | – |
| O=C1C(=O)N(Cc2ccccc2)c2ccc(Cl)cc21 | – | 90 | – | > 10 | 46.9 | – |
| Cc1ccc(C)c(CN2C(=O)C(=O)c3cc(C)ccc32)c1 | – | 80 | Not Active | > 10 | – | – |
| NC(=S)/N=N/c1c(O)[nH]c2ccc(Br)cc12 | – | 20 | – | 7 | 29.6 | – |
| NC(=S)/N=N/c1c(O)[nH]c2ccc(F)cc12 | – | 30 | – | 15 | 38.6 | – |
| O=C1Nc2ccc(F)cc2C1=O [5-FLUOROISATIN] | – | > 10 | Not Active | – | – | – |
| NC(=S)/N=N/c1c(O)[nH]c2ccccc12 | – | 8 | – | 3.5 | 38.8 | – |
| Cc1ccc2c(c1)C(=O)C(=O)N2Cc1ccc(Cl)cc1 | – | > 10 | Not Active | > 10 | – | – |
| Cc1ccc2[nH]c(O)c(/N=N/C(=N)S)c2c1 | – | – | – | 15 | 43.9 | 50 |
| O=C1C(=O)N(Cc2ccc(Cl)cc2)c2ccc(Cl)cc21 | – | 6 | – | > 10 | 31.2 | – |
| O=C1Nc2ccc([N+](=O)[O-])cc2C1=O [5-NITROISATIN] | – | > 10 | – | > 10 | 42.6 | – |
| O=C1Nc2ccc(Cl)cc2C1=O | – | > 10 | Not Active | – | – | – |
